Results as given in publication PMC11864979, “First-in-class ultralong-target-residence-time p38α inhibitors as a mitosis-targeted therapy for colorectal cancer” (Nature Cancer, 2025).
Read-outs that look alike come from different tables or passages of the source.

Tests used:
Assay in all cases: selectivity profiling in a panel of 340 wild-type kinases (Reaction Biology Europe)
Assay type in all cases: binding
340 wild-type kinases [1] = biological target: T1, 340 wild-type kinases (Homo sapiens, UniProt Q9UEE5)
T1 construct: purchased Reaction Biology Europe
T1 sequence (Q9UEE5 1-414): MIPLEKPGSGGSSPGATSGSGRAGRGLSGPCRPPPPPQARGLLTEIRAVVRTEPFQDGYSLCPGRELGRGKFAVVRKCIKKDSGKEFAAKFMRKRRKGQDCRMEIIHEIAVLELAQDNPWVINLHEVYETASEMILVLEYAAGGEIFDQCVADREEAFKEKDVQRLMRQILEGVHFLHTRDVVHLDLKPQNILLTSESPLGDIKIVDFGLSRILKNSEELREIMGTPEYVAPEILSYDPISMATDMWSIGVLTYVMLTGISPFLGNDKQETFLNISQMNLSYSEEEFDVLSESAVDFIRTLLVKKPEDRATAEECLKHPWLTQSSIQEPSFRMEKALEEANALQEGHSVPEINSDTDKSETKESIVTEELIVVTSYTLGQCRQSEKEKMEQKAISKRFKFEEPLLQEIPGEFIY

340 wild-type kinases [2] = biological target: T2, 340 wild-type kinases (Homo sapiens, UniProt Q9HAZ1)
T2 construct: purchased Reaction Biology Europe
T2 sequence (Q9HAZ1 whole entry): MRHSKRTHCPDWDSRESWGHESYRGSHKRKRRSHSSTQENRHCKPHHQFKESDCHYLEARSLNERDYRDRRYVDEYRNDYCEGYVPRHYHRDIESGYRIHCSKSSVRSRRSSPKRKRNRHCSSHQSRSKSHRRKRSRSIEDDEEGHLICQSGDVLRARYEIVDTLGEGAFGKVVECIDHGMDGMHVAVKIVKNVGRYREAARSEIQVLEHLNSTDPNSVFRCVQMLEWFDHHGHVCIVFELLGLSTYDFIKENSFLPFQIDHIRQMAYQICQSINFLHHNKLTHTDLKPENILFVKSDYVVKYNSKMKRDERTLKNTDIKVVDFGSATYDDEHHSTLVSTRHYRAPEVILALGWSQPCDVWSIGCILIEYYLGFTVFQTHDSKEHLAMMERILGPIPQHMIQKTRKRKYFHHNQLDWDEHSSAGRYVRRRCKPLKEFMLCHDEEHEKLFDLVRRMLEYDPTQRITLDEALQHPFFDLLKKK

340 wild-type kinases [3] = biological target: T3, 340 wild-type kinases (Homo sapiens, UniProt O43353)
T3 construct: purchased Reaction Biology Europe
T3 sequence (O43353 whole entry): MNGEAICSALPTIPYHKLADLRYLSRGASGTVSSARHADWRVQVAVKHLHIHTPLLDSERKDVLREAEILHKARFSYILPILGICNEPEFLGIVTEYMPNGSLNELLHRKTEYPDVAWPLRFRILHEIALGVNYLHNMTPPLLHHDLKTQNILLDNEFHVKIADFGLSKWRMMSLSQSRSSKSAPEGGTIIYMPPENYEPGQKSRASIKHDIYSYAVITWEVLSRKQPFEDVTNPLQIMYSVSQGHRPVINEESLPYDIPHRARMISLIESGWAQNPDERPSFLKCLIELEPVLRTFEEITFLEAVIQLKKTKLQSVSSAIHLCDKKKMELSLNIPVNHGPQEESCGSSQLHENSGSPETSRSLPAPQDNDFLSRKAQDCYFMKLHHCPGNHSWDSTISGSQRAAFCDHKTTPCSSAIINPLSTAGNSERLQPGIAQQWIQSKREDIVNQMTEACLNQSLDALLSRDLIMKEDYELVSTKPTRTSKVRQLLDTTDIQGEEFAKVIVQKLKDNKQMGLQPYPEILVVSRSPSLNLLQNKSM

340 wild-type kinases [4] = biological target: T4, 340 wild-type kinases (Homo sapiens, UniProt P54762)
T4 construct: purchased Reaction Biology Europe
T4 sequence (P54762 18-984): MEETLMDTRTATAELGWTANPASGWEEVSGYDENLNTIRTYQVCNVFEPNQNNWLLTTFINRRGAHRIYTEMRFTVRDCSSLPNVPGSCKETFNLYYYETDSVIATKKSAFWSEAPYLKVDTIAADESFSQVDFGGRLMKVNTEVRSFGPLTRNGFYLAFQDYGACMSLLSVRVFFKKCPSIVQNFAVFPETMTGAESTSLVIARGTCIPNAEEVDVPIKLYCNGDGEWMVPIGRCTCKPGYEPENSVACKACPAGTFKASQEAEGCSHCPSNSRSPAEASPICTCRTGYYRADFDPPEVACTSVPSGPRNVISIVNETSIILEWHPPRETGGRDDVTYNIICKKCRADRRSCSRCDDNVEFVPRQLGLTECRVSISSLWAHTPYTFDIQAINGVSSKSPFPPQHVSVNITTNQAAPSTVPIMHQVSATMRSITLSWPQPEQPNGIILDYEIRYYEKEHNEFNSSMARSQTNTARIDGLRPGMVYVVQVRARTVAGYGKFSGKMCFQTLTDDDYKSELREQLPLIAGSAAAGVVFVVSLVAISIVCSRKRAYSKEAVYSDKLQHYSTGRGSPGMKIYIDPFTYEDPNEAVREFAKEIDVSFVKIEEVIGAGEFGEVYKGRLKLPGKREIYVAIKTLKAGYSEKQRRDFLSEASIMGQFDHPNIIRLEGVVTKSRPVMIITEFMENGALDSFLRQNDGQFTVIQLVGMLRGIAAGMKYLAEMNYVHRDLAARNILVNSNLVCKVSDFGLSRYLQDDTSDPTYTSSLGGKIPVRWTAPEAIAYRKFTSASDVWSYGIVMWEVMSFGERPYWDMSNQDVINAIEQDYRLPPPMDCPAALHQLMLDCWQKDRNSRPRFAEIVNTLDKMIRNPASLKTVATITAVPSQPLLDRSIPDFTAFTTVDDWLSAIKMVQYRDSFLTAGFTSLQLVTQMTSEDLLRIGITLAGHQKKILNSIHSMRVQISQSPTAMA

340 wild-type kinases [5] = biological target: T5, 340 wild-type kinases (Homo sapiens, UniProt P19784)
T5 construct: purchased Reaction Biology Europe
T5 sequence (P19784 whole entry): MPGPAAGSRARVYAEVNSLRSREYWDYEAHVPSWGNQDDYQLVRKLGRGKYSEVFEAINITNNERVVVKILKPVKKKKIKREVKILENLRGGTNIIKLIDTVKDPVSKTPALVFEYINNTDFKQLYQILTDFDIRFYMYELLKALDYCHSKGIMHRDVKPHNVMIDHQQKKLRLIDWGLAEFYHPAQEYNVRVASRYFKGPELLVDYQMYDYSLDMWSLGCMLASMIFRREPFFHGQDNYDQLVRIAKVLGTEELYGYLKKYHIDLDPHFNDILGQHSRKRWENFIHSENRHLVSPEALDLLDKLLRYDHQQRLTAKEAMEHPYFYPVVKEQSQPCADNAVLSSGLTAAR

340 wild-type kinases [6] = biological target: T6, 340 wild-type kinases (Homo sapiens, UniProt Q13163)
T6 construct: purchased Reaction Biology Europe
T6 sequence (Q13163 1-448): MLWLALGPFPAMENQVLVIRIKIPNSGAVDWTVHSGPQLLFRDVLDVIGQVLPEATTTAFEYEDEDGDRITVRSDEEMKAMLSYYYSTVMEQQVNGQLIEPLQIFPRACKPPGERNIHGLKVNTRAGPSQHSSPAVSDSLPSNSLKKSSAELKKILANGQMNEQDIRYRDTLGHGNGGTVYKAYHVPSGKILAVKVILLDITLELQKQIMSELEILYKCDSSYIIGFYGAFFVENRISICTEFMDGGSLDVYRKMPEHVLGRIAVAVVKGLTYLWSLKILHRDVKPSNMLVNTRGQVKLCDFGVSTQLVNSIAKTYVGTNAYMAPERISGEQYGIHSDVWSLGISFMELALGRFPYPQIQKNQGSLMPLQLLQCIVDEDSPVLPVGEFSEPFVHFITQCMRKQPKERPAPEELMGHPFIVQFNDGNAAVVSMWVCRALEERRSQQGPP

`CNC(=O)c1ccc2c(c1)C(=O)c1ccc(Nc3ccc(F)c(NC(=O)C4CC4)c3)cc1CC2` [Compound 2015] showed a remaining activity at 0.2 µM (340 wild-type kinases [1]; 0.2 µM 2015, read-out: STK17A residual activity) of 109%, a remaining activity at 1 µM (340 wild-type kinases [1]; 1 µM 2015, read-out: STK17A residual activity) of 97.8% and a remaining activity at 0.2 µM (340 wild-type kinases [1]; STK17A, 0.2 µM, read-out: residual activity) of 109%. The remaining activity at 1 µM (340 wild-type kinases [1]; STK17A, 1 µM, read-out: residual activity) was 97.8%, the remaining activity at 0.2 µM (340 wild-type kinases [2]; 0.2 µM 2015, read-out: CLK4 residual activity) was 120% and the remaining activity at 0.2 µM (340 wild-type kinases [2]; CLK4, 0.2 µM, read-out: residual activity) was 120%. It also gave a remaining activity at 1 µM (340 wild-type kinases [2]; CLK4, 1 µM, read-out: residual activity) of 118%, a remaining activity at 0.2 µM (340 wild-type kinases [3]; 0.2 µM 2015, read-out: RIPK2 residual activity) of 73.7% and a remaining activity at 1 µM (340 wild-type kinases [3]; 1 µM 2015, read-out: RIPK2 residual activity) of 120%. The remaining activity at 0.2 µM (340 wild-type kinases [3]; RIPK2, 0.2 µM, read-out: residual activity) was 73.7%, the remaining activity at 1 µM (340 wild-type kinases [3]; RIPK2, 1 µM, read-out: residual activity) was 120% and the remaining activity at 0.2 µM (340 wild-type kinases [4]; 0.2 µM 2015, read-out: EPHB1 residual activity) was 118%. It also gave a remaining activity at 1 µM (340 wild-type kinases [4]; 1 µM 2015, read-out: EPHB1 residual activity) of 103%, a remaining activity at 0.2 µM (340 wild-type kinases [4]; EPHB1, 0.2 µM, read-out: residual activity) of 118% and a remaining activity at 1 µM (340 wild-type kinases [4]; EPHB1, 1 µM, read-out: residual activity) of 103%. It also gave a remaining activity at 0.2 µM (340 wild-type kinases [5]; 0.2 µM 2015, read-out: CK2alpha2 residual activity) of 102%, a remaining activity at 1 µM (340 wild-type kinases [5]; 1 µM 2015, read-out: CK2alpha2 residual activity) of 97.2% and a remaining activity at 0.2 µM (340 wild-type kinases [5]; CK2alpha2, 0.2 µM, read-out: residual activity) of 102%. For the same compound, the remaining activity at 1 µM (340 wild-type kinases [5]; CK2alpha2, 1 µM, read-out: residual activity) was 97.2%, the remaining activity at 0.2 µM (340 wild-type kinases [6]; 0.2 µM 2015, read-out: MEK5 residual activity) was 102% and the remaining activity at 1 µM (340 wild-type kinases [6]; 1 µM 2015, read-out: MEK5 residual activity) was 88.1%. It also gave a remaining activity at 0.2 µM (340 wild-type kinases [6]; MEK5, 0.2 µM, read-out: residual activity) of 102% and a remaining activity at 1 µM (340 wild-type kinases [6]; MEK5, 1 µM, read-out: residual activity) of 88.1%.
